Structures are written as SMILES.

`O=c1c(Br)cn(-c2cccc(C(F)(F)F)c2)nc1-c1ccnn1-c1ccccc1` [Example 67, 5-Bromo-3-(1-phenyl-1H-pyrazol-5-yl)-1-[3-(trifluoromethyl)phenyl]pyridazin-4(1H)-one] displayed a melting point of 145 to 146 °C.
To `COc1cn(-c2ccc(OCc3ccccc3)cc2F)nc(-c2ccnn2-c2ccccc2)c1=O` [Example 68, 1-[4-(Benzyloxy)-2-fluorophenyl]-5-methoxy-3-(1-phenyl-1H-pyrazol-5-yl)pyridazin-4(1H)-one] belongs 181 to 183 °C; to `O=c1cc(O)n(-c2cccc(C(F)(F)F)c2)nc1-c1ccnn1-c1ccccc1` [Example 69, 6-Hydroxy-3-(1-phenyl-1H-pyrazol-5-yl)-1-[3-(trifluoromethyl)phenyl]pyridazin-4(1H)-one], 241 to 243 °C.
`O=c1ccn(-c2cccc(C(F)(F)F)c2)nc1-c1cc(C(F)(F)F)nn1-c1ccccc1` [Example 70, 3-[1-Phenyl-3-(trifluoromethyl)-1H-pyrazol-5-yl]-1-[3-(trifluoromethyl)phenyl]pyridazin-4(1H)-one] showed a melting point of 190 to 191 °C.
Compound `Cc1cnn(-c2ccccc2)c1-c1nn(-c2cccc(C(F)(F)F)c2)ccc1=O` [Example 71, 3-(4-Methyl-1-phenyl-1H-pyrazol-5-yl)-1-[3-(trifluoromethyl)phenyl]pyridazin-4(1H)-one] came in with a melting point of 208 to 211 °C.
For `O=c1ccn(-c2cccc(C(F)(F)F)c2)nc1-c1cn(C(c2ccccc2)(c2ccccc2)c2ccccc2)nc1-c1ccccc1` [Example 73, 3-(3-Phenyl-1-trityl-1H-pyrazol-4-yl)-1-[3-(trifluoromethyl)phenyl]pyridazin-4(1H)-one] the value was 216 to 218 °C; for `O=c1ccn(-c2cccc(C(F)(F)F)c2)nc1-c1c[nH]nc1-c1ccccc1` [Example 74, 3-(3-Phenyl-1H-pyrazol-4-yl)-1-[3-(trifluoromethyl)phenyl]pyridazin-4(1H)-one], 206 to 208 °C; for `Cn1ncc(-c2nn(-c3cccc(C(F)(F)F)c3)ccc2=O)c1-c1ccccc1` [Example 75, 3-(1-Methyl-5-phenyl-1H-pyrazol-4-yl)-1-[3-(trifluoromethyl)phenyl]pyridazin-4(1H)-one], 193 to 195 °C.
Turning to `Cn1cc(-c2nn(-c3cccc(C(F)(F)F)c3)ccc2=O)c(-c2ccccc2)n1` [Example 76, 3-(1-Methyl-3-phenyl-1H-pyrazol-4-yl)-1-[3-(trifluoromethyl)phenyl]pyridazin-4(1H)-one], the melting point is 181 to 183 °C.
The compound `CC(C)n1ncc(-c2nn(-c3cccc(C(F)(F)F)c3)ccc2=O)c1-c1ccccc1` [Example 78, 3-[1-(1-Methylethyl)-5-phenyl-1H-pyrazol-4-yl]-1-[3-(trifluoromethyl)phenyl]pyridazin-4(1H)-one] gave a melting point of 183 to 186 °C.
The compound `O=c1ccn(-c2cccc(C(F)(F)F)c2)nc1-c1conc1-c1ccccc1` [Example 79, 3-(3-Phenylisoxazol-4-yl)-1-[3-(trifluoromethyl)phenyl]pyridazin-4(1H)-one] showed a melting point of 217 to 219 °C.
`O=c1ccn(-c2cccc(C(F)(F)F)c2)nc1-n1ccnc1-c1ccccc1` [Example 81, 3-(2-Phenyl-1H-imidazol-1-yl)-1-[3-(trifluoromethyl)phenyl]pyridazin-4(1H)-one] displayed a melting point of 204 to 205 °C.
As to `COc1cn(-c2cccc(C(F)(F)F)c2)nc(-n2ccnc2-c2ccccc2)c1=O` [Example 82, 5-Methoxy-3-(2-phenyl-1H-imidazol-1-yl)-1-[3-(trifluoromethyl)phenyl]pyridazin-4(1H)-one], the melting point fell in the range of 167 to 170 °C.
`Cn1cnc(-c2ccccc2)c1-c1nn(-c2cccc(C(F)(F)F)c2)ccc1=O` [Example 84, 3-(1-Methyl-4-phenyl-1H-imidazol-5-yl)-1-[3-(trifluoromethyl)phenyl]pyridazin-4(1H)-one] registered a melting point of 214 to 216 °C.
In turn, `O=c1ccn(-c2cccc(C(F)(F)F)c2)nc1-c1ccoc1-c1ccccc1` [Example 85, 3-(2-Phenylfuran-3-yl)-1-[3-(trifluoromethyl)phenyl]pyridazin-4(1H)-one] showed a melting point of 159 to 163 °C.
Consider `O=c1ccn(-c2cccc(C(F)(F)F)c2)nc1-c1ccsc1-c1ccccc1` [Example 86, 3-(2-Phenylthiophen-3-yl)-1-[3-(trifluoromethyl)phenyl]pyridazin-4(1H)-one], for which the melting point fell in the range of 167 to 168 °C.
Consider `COc1cn(-c2ccncc2)nc(-c2ccnn2-c2ccccc2)c1=O` [Example 87, 5-Methoxy-3-(1-phenyl-1H-pyrazol-5-yl)-1-pyridin-4-ylpyridazin-4(1H)-one], for which the melting point lay within 195 to 197 °C.
The compound `COc1cn(-c2cccc3cccnc23)nc(-c2ccnn2-c2ccccc2)c1=O` [Example 88, 5-Methoxy-3-(1-phenyl-1H-pyrazol-5-yl)-1-quinolin-8-ylpyridazin-4(1H)-one] returned a melting point of 189 to 192 °C.
For `COc1cn(-c2cccc3c2OC(F)(F)O3)nc(-c2ccnn2-c2ccccc2)c1=O` [Example 90, 1-(2,2-Difluoro-1,3-benzodioxol-4-yl)-5-methoxy-3-(1-phenyl-1H-pyrazol-5-yl)pyridazin-4(1H)-one] the value was 181 to 183 °C; for `COc1cn(-c2ccc(O)cc2F)nc(-c2ccnn2-c2ccccc2)c1=O` [Example 91, 1-(2-Fluoro-4-hydroxyphenyl)-5-methoxy-3-(1-phenyl-1H-pyrazol-5-yl)pyridazin-4(1H)-one], 223 to 224 °C.
`COc1cn(-c2cc3c(cc2F)OC(F)(F)O3)nc(-c2ccnn2-c2ccccc2)c1=O` [Example 95, 5-Methoxy-3-(1-phenyl-1H-pyrazol-5-yl)-1-(2,2,6-trifluoro-1,3-benzodioxol-5-yl)pyridazin-4(1H)-one] gave a melting point of 200 to 202 °C.
To `COc1cn(-c2cc3c(cc2F)OC(F)(F)C(F)(F)O3)nc(-c2ccnn2-c2ccccc2)c1=O` [Example 96, 5-Methoxy-1-(2,2,3,3,7-pentafluoro-2,3-dihydro-1,4-benzodioxin-6-yl)-3-(1-phenyl-1H-pyrazol-5-yl)pyridazin-4(1H)-one] belongs 192 to 194 °C.
To `COc1cn(-c2ccc(-c3c(C)noc3C)cc2F)nc(-c2ccnn2-c2ccccc2)c1=O` [Example 112, 1-[4-(3,5-Dimethylisoxazol-4-yl)-2-fluorophenyl]-5-methoxy-3-(1-phenyl-1H-pyrazol-5-yl)pyridazin-4(1H)-one] belongs 200 to 202 °C.
Take `O=c1ccn(-c2cccc3c2OC(F)(F)O3)nc1-c1ccnn1-c1ccccc1` [Example 142, 1-(2,2-Difluoro-1,3-benzodioxol-4-yl)-3-(1-phenyl-1H-pyrazol-5-yl)pyridazin-4(1H)-one]: the melting point was 105 to 107 °C.
For `O=c1ccn(-c2cccc(C(F)(F)F)c2)nc1-c1ccnn1CC1CC1` [Example 152, 3-[1-(Cyclopropylmethyl)-1H-pyrazol-5-yl]-1-[3-(trifluoromethyl)phenyl]pyridazin-4(1H)-one] the value was 155 to 157 °C; for `O=c1ccn(-c2cccc(C(F)(F)F)c2)nc1-c1ccnn1Cc1ccccc1` [Example 153, 3-(1-Benzyl-1H-pyrazol-5-yl)-1-[3-(trifluoromethyl)phenyl]pyridazin-4(1H)-one], 156 to 157 °C; for `COc1ccc(Cn2nccc2-c2nn(-c3cccc(C(F)(F)F)c3)ccc2=O)cc1` [Example 154, 3-[1-(4-Methoxybenzyl)-1H-pyrazol-5-yl]-1-[3-(trifluoromethyl)phenyl]pyridazin-4(1H)-one], 159 to 161 °C.
Take `COc1cn(-c2cccnc2)nc(-c2ccnn2-c2ccccc2)c1=O` [Example 173, 5-Methoxy-3-(1-phenyl-1H-pyrazol-5-yl)-1-pyridin-3-ylpyridazin-4(1H)-one]: the melting point lay in the range of 210 to 212 °C.
The compound `COc1cn(-c2cc(N3CCCC3=O)ccc2F)nc(-c2ccnn2-c2ccccc2)c1=O` [Example 182, 1-[2-Fluoro-5-(2-oxopyrrolidin-1-yl)phenyl]-5-methoxy-3-(1-phenyl-1H-pyrazol-5-yl)pyridazin-4(1H)-one] displayed a melting point of 171 to 174 °C.
Regarding `COc1cn(-c2ccc(N3CC4(CC4)OC3=O)cc2F)nc(-c2ccnn2-c2ccccc2)c1=O` [Example 191, 6-{3-Fluoro-4-[5-methoxy-4-oxo-3-(1-phenyl-1H-pyrazol-5-yl)pyridazin-1(4H)-yl]phenyl}-4-oxa-6-azaspiro[2.4]heptan-5-one], the melting point was 200 to 201 °C.
`COc1cc(=O)c(-c2ccnn2-c2ccccc2)nn1-c1cccc(C(F)(F)F)c1` [Example 193, 6-Methoxy-3-(1-phenyl-1H-pyrazol-5-yl)-1-[3-(trifluoromethyl)phenyl]pyridazin-4(1H)-one] registered a melting point of 139 to 141 °C.

A word on the melting point: it is the temperature, or range, at which the solid turns liquid.

These data come from US8513251B2, “Pyridazinone compounds” (Takeda Pharmaceutical Company Limited, priority 2009, dated 2013).
